Assay results: US4162324A, “Antibiotics 890A1 and 890A3” (Merck & Co., Inc., priority 1977, dated 1979)

What was measured:
[1] = tested on: Pseudomonas aeruginosa MB-2824; assay: In vitro antibacterial spectrum profile, zone of inhibition; type: cell-based; conditions: MB2824, 182 μg/ml, read-out: Inhib. Zone Diam.
[2] = tested on: Pseudomonas stutzeri ATCC 11607; assay: as above; type: cell-based; conditions: Stutzerimonas stutzeri, ATCC11607; 182 μg/ml; read-out: Inhib. Zone Diam.
[3] = tested on: Proteus vulgaris (episome) MB-2112; assay: as above; type: cell-based; conditions: 182 μg/ml, read-out: Inhib. Zone Diam.
[4] = tested on: Corynebacterium pseudoidph. ATCC 9742; assay: as above; type: cell-based; conditions: ATCC9742, 182 μg/ml, read-out: Inhib. Zone Diam.
Method: (§1) The test to determine the antibiotic spectrum profile is carried out by application of a 0.015 ml. droplet on the surface of a 100×15 mm. petri plate containing 5 ml. of seeded nutrient agar and 0.2% yeast extract. The antibiotic 890A1 is tested at a level of 33 μg/ml. and the antibiotic 890A3 is tested at a level of 182 μg/ml.

[5] = tested on: Alcaligenes faecalis ATCC 213; assay: as above; type: cell-based; conditions: ATCC213, 182 μg/ml, read-out: Inhib. Zone Diam.
Method: as §1

[6] = tested on: Proteus vulgaris ATCC 21100; assay: as above; type: cell-based; conditions: ATCC21100, 182 μg/ml, read-out: Inhib. Zone Diam.
Method: as §1

Bacillus sp. MB-633 = assay: as above; type: cell-based; conditions: SP.MB633, 182 μg/ml, read-out: Inhib. Zone Diam.
Method: as §1

[7] = tested on: Streptococcus faecalis MB-753; assay: as above; type: cell-based; conditions: Enterococcus faecalis, MB753; 182 μg/ml; read-out: Inhib. Zone Diam.
[8] = tested on: Streptococcus faecium MB-2820; assay: as above; type: cell-based; conditions: Enterococcus faecium, MB2820; 182 μg/ml; read-out: Inhib. Zone Diam.
[9] = tested on: Klebsiella pneumoniae MB-1264; assay: as above; type: cell-based; conditions: MB1264, 182 μg/ml, read-out: Inhib. Zone Diam.
[10] = tested on: Staphylococcus aureus MB-698; assay: as above; type: cell-based; conditions: MB698, read-out: Inhib. Zone Diam.
[11] = tested on: Vibrio percolans ATCC 8461; assay: Bioassay, agar plate disc-diffusion method; conditions: 890A1 value defined as standard
[12] = tested on: Vibrio percolans ATCC 8461; assay: In vitro antibacterial spectrum profile, zone of inhibition; type: cell-based; conditions: Comamonas terrigena, ATCC8461; 182 μg/ml; read-out: Inhib. Zone Diam.
Escherichia coli MB-1418 = assay: as above; type: cell-based; conditions: MB1418, 182 μg/ml, read-out: Inhib. Zone Diam.
[13] = tested on: Streptococcus agalactiae MB-2875; assay: as above; type: cell-based; conditions: MB2875, 182 μg/ml, read-out: Inhib. Zone Diam.
[14] = tested on: Erwinia atroseptica ATCC 4466; assay: as above; type: cell-based; conditions: Pectobacterium atrosepticum, ATCC4466; 182 μg/ml; read-out: Inhib. Zone Diam.
[15] = tested on: Vibrio percolans resistant to ceph. C MB-2566; assay: as above; type: cell-based; conditions: Comamonas terrigena, read-out: Inhib. Zone Diam.
[16] = tested on: Vibrio percolans ATCC 8461 + 2 × 10^5 units/ml penicillinase; assay: In vitro antibacterial spectrum profile, zone of inhibition, with penicillinase; type: cell-based; conditions: Comamonas terrigena, ATCC8461, 182 μg/ml, read-out: Inhib. Zone Diam.
[17] = tested on: Proteus mirabilis MB-3126; assay: In vitro antibacterial spectrum profile, zone of inhibition; type: cell-based; conditions: MB3126, 182 μg/ml, read-out: Inhib. Zone Diam.
[18] = tested on: Escherichia coli ATCC 9637; assay: In vitro antibacterial spectrum profile, zone of inhibition, synthetic medium; type: cell-based; conditions: ATCC9637, 182 μg/ml, synthetic medium, read-out: Inhib. Zone Diam.
[19] = tested on: Xanthomonas vesicatoria MB-815; assay: In vitro antibacterial spectrum profile, zone of inhibition; type: cell-based; conditions: MB815, 182 μg/ml, read-out: Inhib. Zone Diam.
[20] = tested on: Brucella bronchiseptica ATCC 4617; assay: microbe, parasite or virus in culture; type: cell-based; conditions: Bordetella bronchiseptica, ATCC4617, read-out: Inhib. Zone Diam.
[21] = tested on: Aerobacter aerogenes MB-835; assay: In vitro antibacterial spectrum profile, zone of inhibition; type: cell-based; conditions: Klebsiella aerogenes, MB835; 182 μg/ml; read-out: Inhib. Zone Diam.
[22] = tested on: Serratia marcescens ATCC 990; assay: as above; type: cell-based; conditions: ATCC990, 182 μg/ml, read-out: Inhib. Zone Diam.
Proteus vulgaris MB-1012 = assay: as above; type: cell-based; conditions: MB1012, 182 μg/ml, read-out: Inhib. Zone Diam.
Electrophoresis = type: physicochemical; conditions: neutral pH
[23] = tested on: Salmonella gallinarum MB-1287; assay: In vitro antibacterial spectrum profile, zone of inhibition; type: cell-based; conditions: Salmonella enterica, 182 μg/ml, read-out: Inhib. Zone Diam.
penicillinase = assay: Resistance to degradation by penicillinase; type: biochemical; conditions: compared with 890A1
Method: Bio-Gel fraction 63 is combined with fractions 61, 66 and 67 from the Bio-Gel column. These four combined fractions have a total of 235 absorbance units at 300 nm. To this is added 0.2 ml. of 1M Tris-HCl buffer, ph 7.5, and 0.2 ml. of penicillinase [Difco "Bacto-Penase," containing 500,000 units per ml. (1000 LU/ml.) wherein the term LU refers to Levy units; 1,000 LU will inactivate 500,000 units of penicillin G].
After 113 minutes at 23° C., an additional 0.2 ml. of penicillinase is added. After an additional 7 hours at room temperature, another 0.2 ml. of penicillinase is added, and after an additional two hours at room temperature, the reaction mixture is chilled in an ice bath. The terminated reaction mixture is diluted to 15 ml. by addition of 5 ml. of deionized water. The absorbance of the diluted reacted preparation is 6.3 at 300 nm of which 2.64 is extinguishable by reaction with cysteine.

[24] = tested on: Bacillus subtilis ATCC 6633; assay: In vitro antibacterial spectrum profile, zone of inhibition; type: cell-based; conditions: ATCC6633, 182 μg/ml, read-out: Inhib. Zone Diam.
Sarcina lutea ATCC 9341 = assay: as above; type: cell-based; conditions: Micrococcus luteus, ATCC9341; 182 μg/ml; read-out: Inhib. Zone Diam.
[25] = tested on: Pseudomonas aeruginosa MB-979; assay: as above; type: cell-based; conditions: MB979, 182 μg/ml, read-out: Inhib. Zone Diam.
[26] = tested on: Staphlococcus aureus ATCC 6538 P; assay: as above; type: cell-based; conditions: read-out: Inhib. Zone Diam.

Question: What does the source list for `CC(=O)NCCSC1=C(C(=O)O)N2C(=O)C(C(C)O)C2C1` (centres unmarked) [Antibiotic 890A3]?
Answer: zone of inhibition at 182 µg/mL [1]: 32 mm; zone of inhibition at 182 µg/mL [2]: 32 mm; zone of inhibition at 182 µg/mL [3]: 38 mm; zone of inhibition at 182 µg/mL [4]: 36 mm; zone of inhibition at 182 µg/mL [5]: 34 mm; zone of inhibition at 182 µg/mL [6]: 34 mm; zone of inhibition at 182 µg/mL (Bacillus sp. MB-633): 37 mm; zone of inhibition at 182 µg/mL [7]: 17 mm; zone of inhibition at 182 µg/mL [8]: 24 mm; zone of inhibition at 182 µg/mL [9]: 33 mm; zone of inhibition at 182 µg/mL [10]: 34 mm; antibiotic potency [11]: 31 units per HAEA300 unit; zone of inhibition at 182 µg/mL [12]: 40 mm; zone of inhibition at 182 µg/mL (Escherichia coli MB-1418): 32 mm; zone of inhibition at 182 µg/mL [13]: 30 mm; zone of inhibition at 182 µg/mL [14]: 30 mm; zone of inhibition at 182 µg/mL [15]: 34 mm; zone of inhibition at 182 µg/mL [16]: 35 mm; zone of inhibition at 182 µg/mL [17]: 30 mm; zone of inhibition at 182 µg/mL [18]: 29 mm; zone of inhibition at 182 µg/mL [19]: 26 mm; zone of inhibition at 182 µg/mL [20]: 27 mm; zone of inhibition at 182 µg/mL [21]: 30 mm; zone of inhibition at 182 µg/mL [22]: 28 mm; zone of inhibition at 182 µg/mL (Proteus vulgaris MB-1012): 24 mm; movement on electrophoresis (Electrophoresis): acidic substance which moves to the positive pole on electrophoresis at neutral pH; zone of inhibition at 182 µg/mL [23]: 33 mm; resistance to degradation by penicillinase (penicillinase): relatively higher resistance; zone of inhibition at 182 µg/mL [24]: 40 mm; zone of inhibition at 182 µg/mL (Sarcina lutea ATCC 9341): 44 mm; zone of inhibition at 182 µg/mL [25]: 0 mm; zone of inhibition at 182 µg/mL [26]: 36 mm
